Key:
[1] = Multiple once-daily oral dosing study, Dose Step 1 100 mg q.d.: PK; assay type: in vivo, human; settings: assuming dose linearity from Day 10 PK data
Method: (§1) Randomized, double-blind, placebo-controlled, stepwise study of the pharmacokinetics (PK), pharmacodynamics (PD), PK/PD characteristics and safety of multiple once-daily oral dosing of DPOC-4088 in healthy young male subjects
Preliminary Safety, PK, and PD Results Dose Step 1: 100 mg q.d.
Mean PK profiles of DPOC-4088 on Day 1 (first dose) and Day 10 (steady-state) are shown in FIGS. 14 a-b, respectively. • On Day 1, the mean PK profile was in line with observation from the previous single dose study (DPOC-001). • The degree of accumulation to steady-state levels was modest with a Day 10/Day 1 ratio for AUC24h of 1.4. […] Pharmacodynamics

[2] = Multiple once-daily dosing study: safety; assay type: in vivo, human
Source text: as §1
10 healthy volunteers participated in the first step of the multiple dose study (8 received DPOC-4088 and 2 received placebo). […] Minor AEs were reported. All AEs were grade 1, transient and were resolved. No bruising (except for puncture site hematomas) or petechiae were reported and the physical (including neurological) exams were normal in all volunteers. The lab exams were within normal limits or deviating without clinical significance.

thrombin [3] = assay: Single dose crossover study: thrombin time (TT); assay type: in vivo, human; settings: by 48 hrs; returned to within
Method: As used herein, the term “thrombin time (TT)” is the time required for plasma fibrinogen to form […], measured as the time for clot formation after exogenous thrombin is added to citrated plasma.
(§2) Four formulations having same composition as those described in Example 1 were dosed in a clinical study. […] (reported as the international normalized ratio [INR]); (i.e. PD parameters) and (3) assess the safety of DPOC-4088 in healthy volunteers.
(§3) Twelve subjects aged 21 to 45 (mean 32.9±8.55) years were enrolled, and were dosed in 4 periods after an overnight fast and had blood drawn for PK/PD determinations immediately prior to dosing and at specified time intervals for 48 hrs post-dosing. Each dosing period was separated by a ≥5-day washout. The observed PK and PD parameters are tabulated as Table 12.

thrombin [4] = target: T1, thrombin (Homo sapiens, UniProt P00734); assay: Multiple once-daily dosing study: aPTT; assay type: in vivo; parameters: from tissue; host or cells: blood plasma of dosed subjects; settings: at maximum levels, from regression analyses
Source text: (§4) As used herein, the term “activated partial thromboplastin time (aPTT)” is the period required for clot formation in recalcified blood plasma after contact activation and the addition of platelet substitutes. This measure is used to address the intrinsic and common pathways of coagulation.
as §1
Mean maximum and minimum fold changes compared to baseline (Day 1, pre dose) in ECT, aPTT and PT on Day 10 are shown in Table 15. […] Minimum changes in ECT and aPTT on Day 10 were 1.12 and 1.10 respectively (Table 16). These values are lower than the target values defined in the protocol which were 2 and 1.5, respectively, at steady-state trough levels (see below). • Linear regression on the changes in ECT and aPTT versus DPOC-4088 plasma levels was performed. […] For ECT the changes would be 2.4 and 3.1 fold respectively. • For reference, for dabigatran, clinically relevant doses result in changes in aPTT of approximately 1.50 fold at trough levels and 2-fold at maximum levels. For ECT these changes are approximately 2-fold at trough levels and 3-fold at maximum levels.

[5] = Single dose crossover study: safety; assay type: in vivo, human
Method: as §2
as §3, with “washout.” for “washout. The observed PK and PD parameters are tabulated as Table 12.”

thrombin [6] = target: T1, thrombin; assay: Single dose crossover study: activated partial thromboplastin time (aPTT); assay type: in vivo; parameters: from tissue; host or cells: blood plasma of dosed subjects; settings: 24 hrs post-dose
Method: as §4, §2, §3

thrombin [7] = target: T1, thrombin; assay: Single dose crossover study: ecarin clotting time (ECT); assay type: in vivo; parameters: a prothrombin-thrombin intermediate which retains the full molecular weight of prothrombin; from tissue; host or cells: blood plasma of dosed subjects
thrombin [8] = target: T1, thrombin; assay: Multiple once-daily dosing study: ECT; assay type: in vivo; parameters: a prothrombin-thrombin intermediate which retains the full molecular weight of prothrombin; from tissue; host or cells: blood plasma of dosed subjects; settings: at maximum levels, from regression analyses
thrombin [9] = target: T1, thrombin; assay: Single dose crossover study: prothrombin time PT (INR); assay type: in vivo; parameters: from tissue; host or cells: blood plasma of dosed subjects
Method: As used herein, the term “prothrombin time (PT)” is the rate at which prothrombin is converted to thrombin in citrated blood with added calcium. This is used to assess the extrinsic coagulation system of the blood
as §2, §3

- expected maximum DPOC-4088 levels ([1]; daily dose 200 mg): ~2000 nM
- expected maximum DPOC-4088 levels ([1]; daily dose 300 mg): ~3000 nM
- aPTT expected fold change from baseline (thrombin [4]; Day 10, 200 mg once daily): 1.8 fold
- aPTT expected fold change from baseline (thrombin [4]; Day 10, 300 mg once daily): 2.2 fold
- mean aPTT above the pre-dose aPTT (thrombin [6]; 100 mg): 12-15%
- mean aPTT above the pre-dose aPTT (thrombin [6]; 200 mg): 21-24%
- mean 24 hr ECT above the pre-dose ECT (thrombin [7]; 100 mg dose): 21-23%
- mean 24 hr ECT above the pre-dose ECT (thrombin [7]; 200 mg dose): 35-36%
- ECT expected fold change from baseline (thrombin [8]; Day 10, 200 mg once daily): 2.4 fold
- ECT expected fold change from baseline (thrombin [8]; Day 10, 300 mg once daily): 3.1 fold
- mean peak INR (thrombin [9]; single dose 100 mg formulations): 1.15-1.17
- mean peak INR (thrombin [9]; single dose 200 mg formulations): 1.28-1.30
- time at which mean peak INRs were reached (thrombin [9]; single doses of 100 or 200 mg): 4 h
SMILES: O=C(Cn1c(Cl)cnc(NCC(F)(F)c2ccccn2)c1=O)NCc1ncccc1F [DPOC-4088, 3-fluoro-2-pyridylmethyl-3-(2,2-difluoro-2-(2-pyridyl)ethylamino)-6-chloropyrazin-2-one-1-acetamide]
- safety conclusion ([2]; 100 mg level, after 10 days of oral administration): very safe
- treatment emergent serious adverse events (AEs) ([2]; 100 mg q.d., 8 on DPOC-4088): No treatment emergent serious adverse events
- mean TT relative to pre-dosing TT (thrombin [3]): 1-15%
- safety and tolerability ([5]; 100 and 200 mg doses, both release formulations): safe and well-tolerated
- Adverse events (AEs), subjects ([5]; most grade 1, unrelated or unlikely related): 9/12

Source: US10016417B2, “Extended release formulation of a direct thrombin inhibitor” (Diakron Pharmaceuticals Inc., priority 2011, dated 2018)
